# Results reported in publication PMC11956013, “Structure–Activity Relationships and Evaluation of 2-(Heteroaryl-cycloalkyl)-1H-indoles as Tauopathy Positron Emission Tomography Radiotracers” (Journal of Medicinal Chemistry, 2025).
# Columns and labels:
# CCK2 (CCKB) (h) = CCK2 (CCKB) (h) (Homo sapiens, UniProt P32239); assay: biochemical
# ATPase (Na+/K+) = assay: Eurofins panel: ATPase (Na+/K+) enzymatic activity; format: biochemical; details: 1.0E-05 M
# OX1 (h) = OX1 (h) (Homo sapiens, UniProt O43613); details: compound concentration 1.0E-05 M
# V1a (h) = V1a (h) (Homo sapiens, UniProt P37288); details: compound concentration 1.0E-05 M
# p38alpha kinase (h) = p38alpha kinase (h) (Homo sapiens, UniProt Q16539); details: compound concentration 1.0E-05 M
# kainate = kainate (agonist radioligand), Eurofins assay 65; details: Specific binding; 1.0E-05 M
# kappa (h) (KOP) = kappa (h) (KOP) (Homo sapiens, UniProt P41145); assay: biochemical; format: binding
# alpha2C (h) = alpha2C (h) (Homo sapiens, UniProt P18825); details: 1.0E-05 M; alpha2C (h) (antagonist radioligand)
# D1 (h) = D1 (h) (Homo sapiens, UniProt P21728); assay: biochemical
# [1] = molecular target: MAO-A, human, monoamine oxydase A (Homo sapiens, UniProt P21397); assay: MAO-A, human, monoamine oxydase A, MAO, Enzymatic Assay, Cerep, assay 5108
# 5-HT1B (h) = 5-HT1B (h) (Homo sapiens, UniProt P28222); assay: Eurofins panel: 5-HT1B (h) (antagonist radioligand); details: 1.0E-05 M
# cathepsin L (h) = molecular target: T1, cathepsin L (h) (Homo sapiens, UniProt P07711); assay: Eurofins panel: cathepsin L (h) enzymatic activity; format: biochemical; details: 1.0E-05 M; cathepsin L (h)
# T1 construct: Eurofins (panel run by the vendor)
# CYP2C19 = CYP2C19 (Homo sapiens, UniProt P33261); assay: in vitro; details: human liver microsomes, probe omeprazole
# CYP2D6 = CYP2D6 (Homo sapiens, UniProt P10635); assay: in vitro; details: human liver microsomes, probe dextromethorphan
# BZDp (TSPO) (h) = BZDp (TSPO) (h) (Homo sapiens, UniProt P30536); assay: Eurofins panel: BZDp (TSPO) (h) (antagonist radioligand); details: 1.0E-05 M; BZDp (TSPO) (h) (antagonist radioligand)
# 5-HT2A (h) = molecular target: T2, 5-HT2A (h) (Homo sapiens, UniProt P28223); assay: Eurofins panel: 5-HT2A (h) (agonist radioligand); format: binding; details: 1.0E-05 M; 5-HT2A (h) (agonist radioligand)
# T2 construct: purchased Eurofins (contract screening, CNS SafetyScreen panel)
# alpha1A (h) = molecular target: T3, alpha1A (h) (Homo sapiens, UniProt P35348); assay: Eurofins panel: alpha1A (h) (antagonist radioligand); details: 1.0E-05 M; alpha1A (h) (antagonist radioligand)
# T3 sequence (P35348 1-466): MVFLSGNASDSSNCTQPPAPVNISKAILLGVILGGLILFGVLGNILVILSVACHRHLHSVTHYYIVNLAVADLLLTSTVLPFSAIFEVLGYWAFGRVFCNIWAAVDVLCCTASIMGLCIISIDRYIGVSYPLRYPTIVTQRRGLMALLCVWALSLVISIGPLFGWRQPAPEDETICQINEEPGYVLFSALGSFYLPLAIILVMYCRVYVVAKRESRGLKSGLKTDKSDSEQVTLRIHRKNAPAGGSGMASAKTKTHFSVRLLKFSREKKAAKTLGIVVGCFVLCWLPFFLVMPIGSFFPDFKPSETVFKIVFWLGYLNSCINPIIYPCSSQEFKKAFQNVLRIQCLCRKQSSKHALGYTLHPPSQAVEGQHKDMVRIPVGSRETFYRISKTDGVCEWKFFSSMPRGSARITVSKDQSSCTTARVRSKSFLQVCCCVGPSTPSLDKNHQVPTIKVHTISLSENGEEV
# NMDA = assay: Eurofins panel: NMDA (antagonist radioligand); format: binding; details: compound concentration 1.0E-05 M
# M5 (h) = molecular target: T4, M5 (h) (Homo sapiens, UniProt P08912); assay: M5 (h) (antagonist radioligand), Eurofins assay 97
# T4 sequence (P08912 1-532): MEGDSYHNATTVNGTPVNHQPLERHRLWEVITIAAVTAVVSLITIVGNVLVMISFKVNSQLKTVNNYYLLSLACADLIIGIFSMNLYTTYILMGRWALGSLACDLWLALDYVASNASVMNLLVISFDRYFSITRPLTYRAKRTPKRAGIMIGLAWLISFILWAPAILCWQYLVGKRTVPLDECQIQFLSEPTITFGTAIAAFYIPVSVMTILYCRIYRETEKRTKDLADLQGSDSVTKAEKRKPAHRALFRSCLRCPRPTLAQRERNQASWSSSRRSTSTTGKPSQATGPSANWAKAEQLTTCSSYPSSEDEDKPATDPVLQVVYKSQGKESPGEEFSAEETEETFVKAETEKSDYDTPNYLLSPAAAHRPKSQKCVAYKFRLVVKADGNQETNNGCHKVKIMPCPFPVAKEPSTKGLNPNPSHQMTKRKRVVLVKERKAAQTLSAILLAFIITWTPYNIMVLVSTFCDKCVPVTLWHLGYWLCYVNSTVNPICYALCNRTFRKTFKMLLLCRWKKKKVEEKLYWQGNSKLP
# mu (MOP) (h) = mu (MOP) (h) (Homo sapiens, UniProt P35372); assay: Eurofins panel: mu (MOP) (h) (agonist radioligand); details: compound concentration 1.0E-05 M
# CB1 (h) = CB1 (h) (Homo sapiens, UniProt P21554); assay: biochemical
# Sequence of CB1 (h) (P21554 whole entry): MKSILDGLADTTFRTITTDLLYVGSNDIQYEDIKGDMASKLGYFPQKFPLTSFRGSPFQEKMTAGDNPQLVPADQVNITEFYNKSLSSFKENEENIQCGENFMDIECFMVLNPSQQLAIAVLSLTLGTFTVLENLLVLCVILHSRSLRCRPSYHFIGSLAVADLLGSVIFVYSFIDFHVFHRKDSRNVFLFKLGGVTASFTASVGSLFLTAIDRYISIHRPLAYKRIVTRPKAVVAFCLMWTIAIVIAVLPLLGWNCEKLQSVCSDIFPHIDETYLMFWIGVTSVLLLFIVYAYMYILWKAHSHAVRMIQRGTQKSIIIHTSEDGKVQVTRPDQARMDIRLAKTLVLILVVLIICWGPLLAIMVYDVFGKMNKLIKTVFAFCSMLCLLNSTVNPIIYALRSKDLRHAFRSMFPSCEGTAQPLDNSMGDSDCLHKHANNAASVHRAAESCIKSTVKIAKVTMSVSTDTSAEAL
# Sequence of alpha2C (h) (P18825 whole entry): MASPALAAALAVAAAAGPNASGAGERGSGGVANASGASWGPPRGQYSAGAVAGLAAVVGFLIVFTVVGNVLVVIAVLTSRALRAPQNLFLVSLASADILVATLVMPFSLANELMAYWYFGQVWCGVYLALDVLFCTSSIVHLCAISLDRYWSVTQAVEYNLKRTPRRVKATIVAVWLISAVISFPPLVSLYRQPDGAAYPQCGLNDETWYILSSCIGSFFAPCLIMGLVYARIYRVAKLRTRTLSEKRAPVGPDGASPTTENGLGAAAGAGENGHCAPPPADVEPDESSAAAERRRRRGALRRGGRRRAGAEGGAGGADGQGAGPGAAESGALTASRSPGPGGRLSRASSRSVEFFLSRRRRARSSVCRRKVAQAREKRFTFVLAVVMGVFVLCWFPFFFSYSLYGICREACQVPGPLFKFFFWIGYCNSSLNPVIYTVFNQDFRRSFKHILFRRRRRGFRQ
# Sequence of BZDp (TSPO) (h) (P30536 whole entry): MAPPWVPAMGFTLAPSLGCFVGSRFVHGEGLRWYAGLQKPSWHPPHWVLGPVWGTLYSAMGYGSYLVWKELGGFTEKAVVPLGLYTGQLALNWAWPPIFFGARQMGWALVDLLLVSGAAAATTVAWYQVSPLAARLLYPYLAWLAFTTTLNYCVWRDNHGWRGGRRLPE
# Sequence of V1a (h) (P37288 whole entry): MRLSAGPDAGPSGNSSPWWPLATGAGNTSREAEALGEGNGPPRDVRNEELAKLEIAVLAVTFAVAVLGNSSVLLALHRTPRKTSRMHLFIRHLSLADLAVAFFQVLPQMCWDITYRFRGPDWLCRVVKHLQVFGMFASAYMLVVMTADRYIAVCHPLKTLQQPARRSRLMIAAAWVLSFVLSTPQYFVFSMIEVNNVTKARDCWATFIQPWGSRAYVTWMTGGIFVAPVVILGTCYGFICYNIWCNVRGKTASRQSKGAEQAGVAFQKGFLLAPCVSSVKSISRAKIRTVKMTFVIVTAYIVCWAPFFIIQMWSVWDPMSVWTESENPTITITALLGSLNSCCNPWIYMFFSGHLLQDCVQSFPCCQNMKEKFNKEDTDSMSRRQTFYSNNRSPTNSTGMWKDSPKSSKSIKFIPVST
# T1 sequence (P07711 114-333): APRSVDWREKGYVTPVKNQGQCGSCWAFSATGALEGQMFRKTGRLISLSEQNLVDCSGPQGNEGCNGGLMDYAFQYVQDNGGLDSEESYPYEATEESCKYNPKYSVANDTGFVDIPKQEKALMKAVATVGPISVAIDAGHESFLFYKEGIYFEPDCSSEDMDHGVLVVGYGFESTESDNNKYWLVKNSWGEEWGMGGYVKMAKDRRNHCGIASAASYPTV
# Sequence of kappa (h) (KOP) (P41145 whole entry): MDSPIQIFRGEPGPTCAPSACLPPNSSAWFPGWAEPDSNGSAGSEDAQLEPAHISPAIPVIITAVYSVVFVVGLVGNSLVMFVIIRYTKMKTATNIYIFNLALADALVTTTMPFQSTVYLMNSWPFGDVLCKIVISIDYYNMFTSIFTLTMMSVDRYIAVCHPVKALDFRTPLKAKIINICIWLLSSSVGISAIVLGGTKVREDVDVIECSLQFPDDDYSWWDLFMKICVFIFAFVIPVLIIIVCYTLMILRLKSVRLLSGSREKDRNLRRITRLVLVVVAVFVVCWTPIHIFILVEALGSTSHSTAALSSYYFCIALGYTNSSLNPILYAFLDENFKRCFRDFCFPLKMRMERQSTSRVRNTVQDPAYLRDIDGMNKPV
# T2 sequence (P28223 whole entry): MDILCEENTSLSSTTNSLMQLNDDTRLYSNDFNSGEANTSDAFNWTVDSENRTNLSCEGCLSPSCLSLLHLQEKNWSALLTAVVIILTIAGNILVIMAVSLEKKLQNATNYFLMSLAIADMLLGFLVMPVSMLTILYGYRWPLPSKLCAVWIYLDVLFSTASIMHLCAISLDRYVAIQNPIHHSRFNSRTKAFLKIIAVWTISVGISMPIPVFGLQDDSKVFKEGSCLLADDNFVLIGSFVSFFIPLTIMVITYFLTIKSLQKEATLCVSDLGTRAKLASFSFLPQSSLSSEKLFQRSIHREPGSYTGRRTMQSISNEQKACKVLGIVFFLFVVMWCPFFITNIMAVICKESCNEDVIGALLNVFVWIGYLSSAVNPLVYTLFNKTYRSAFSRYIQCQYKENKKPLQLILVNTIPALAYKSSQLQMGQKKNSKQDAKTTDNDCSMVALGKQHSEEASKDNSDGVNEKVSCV
# Sequence of p38alpha kinase (h) (Q16539 whole entry): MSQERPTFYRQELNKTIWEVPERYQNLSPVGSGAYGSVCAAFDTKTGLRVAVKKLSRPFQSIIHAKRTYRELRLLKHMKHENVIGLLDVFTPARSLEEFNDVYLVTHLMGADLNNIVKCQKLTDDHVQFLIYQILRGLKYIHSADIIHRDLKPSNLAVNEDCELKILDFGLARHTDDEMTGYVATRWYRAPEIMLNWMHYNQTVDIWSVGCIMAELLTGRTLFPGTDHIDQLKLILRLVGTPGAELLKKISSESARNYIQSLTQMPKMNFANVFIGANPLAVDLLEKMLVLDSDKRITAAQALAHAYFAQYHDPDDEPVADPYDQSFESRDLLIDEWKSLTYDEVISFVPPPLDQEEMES
# Sequence of CCK2 (CCKB) (h) (P32239 whole entry): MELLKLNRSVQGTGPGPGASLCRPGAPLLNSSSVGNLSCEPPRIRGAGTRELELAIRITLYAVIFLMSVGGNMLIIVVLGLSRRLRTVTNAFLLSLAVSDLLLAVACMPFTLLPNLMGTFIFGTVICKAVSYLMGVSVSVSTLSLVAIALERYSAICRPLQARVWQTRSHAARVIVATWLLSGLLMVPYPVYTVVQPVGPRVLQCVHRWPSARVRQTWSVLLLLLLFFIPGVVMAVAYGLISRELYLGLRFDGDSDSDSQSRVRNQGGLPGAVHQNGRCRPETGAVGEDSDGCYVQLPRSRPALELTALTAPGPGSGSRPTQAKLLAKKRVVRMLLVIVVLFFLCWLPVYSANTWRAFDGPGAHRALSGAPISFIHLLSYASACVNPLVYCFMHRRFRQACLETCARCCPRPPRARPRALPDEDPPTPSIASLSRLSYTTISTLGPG
# Sequence of CYP2D6 (P10635 whole entry): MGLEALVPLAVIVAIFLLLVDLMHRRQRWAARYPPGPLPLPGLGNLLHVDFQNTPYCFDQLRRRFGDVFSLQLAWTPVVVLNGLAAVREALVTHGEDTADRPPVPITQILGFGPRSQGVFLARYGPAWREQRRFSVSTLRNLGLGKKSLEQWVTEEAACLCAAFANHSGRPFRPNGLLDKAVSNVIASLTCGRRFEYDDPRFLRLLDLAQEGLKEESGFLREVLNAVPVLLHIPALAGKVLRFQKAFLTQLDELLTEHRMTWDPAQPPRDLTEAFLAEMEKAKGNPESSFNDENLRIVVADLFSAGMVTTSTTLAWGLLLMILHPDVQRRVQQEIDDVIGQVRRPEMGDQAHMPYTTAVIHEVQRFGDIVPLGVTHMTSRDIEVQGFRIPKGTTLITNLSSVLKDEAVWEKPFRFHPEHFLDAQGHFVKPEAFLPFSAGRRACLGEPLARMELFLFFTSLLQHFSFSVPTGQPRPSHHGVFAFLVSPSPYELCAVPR
# Sequence of MAO-A, human, monoamine oxydase A (P21397 whole entry): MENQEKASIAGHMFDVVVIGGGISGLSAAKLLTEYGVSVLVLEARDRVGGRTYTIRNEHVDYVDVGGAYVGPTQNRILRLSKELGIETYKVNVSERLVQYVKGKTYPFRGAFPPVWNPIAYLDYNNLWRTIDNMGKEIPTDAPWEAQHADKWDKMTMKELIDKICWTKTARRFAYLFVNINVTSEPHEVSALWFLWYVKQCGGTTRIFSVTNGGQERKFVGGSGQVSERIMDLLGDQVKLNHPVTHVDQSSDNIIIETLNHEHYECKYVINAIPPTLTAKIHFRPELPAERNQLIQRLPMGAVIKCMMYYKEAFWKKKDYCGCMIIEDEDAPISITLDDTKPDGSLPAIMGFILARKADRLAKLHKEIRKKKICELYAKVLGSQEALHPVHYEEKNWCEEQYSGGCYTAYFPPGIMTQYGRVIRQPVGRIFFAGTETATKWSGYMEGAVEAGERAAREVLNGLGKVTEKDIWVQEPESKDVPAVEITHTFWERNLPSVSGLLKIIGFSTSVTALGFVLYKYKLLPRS
# Sequence of OX1 (h) (O43613 whole entry): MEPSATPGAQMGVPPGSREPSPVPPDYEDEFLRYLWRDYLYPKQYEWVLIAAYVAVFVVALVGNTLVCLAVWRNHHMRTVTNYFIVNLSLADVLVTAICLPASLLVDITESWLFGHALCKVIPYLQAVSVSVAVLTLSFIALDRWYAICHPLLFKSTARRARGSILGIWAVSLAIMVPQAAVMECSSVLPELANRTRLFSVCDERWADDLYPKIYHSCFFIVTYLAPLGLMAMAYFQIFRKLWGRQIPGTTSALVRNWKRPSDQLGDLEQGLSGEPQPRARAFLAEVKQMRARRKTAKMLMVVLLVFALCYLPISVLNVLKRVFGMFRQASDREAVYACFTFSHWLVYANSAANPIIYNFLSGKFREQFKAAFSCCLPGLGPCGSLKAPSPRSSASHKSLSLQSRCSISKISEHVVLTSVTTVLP
compound,measurement,setting,value
"Fc1nc(N2CCOCC2)ccc1-c1cc2ccccc2[nH]1 [Compound 75, 4-(6-Fluoro-5-(1H-indol-2-yl)pyridin-2-yl)morpholine]",inhibition at 10 µM,CCK2 (CCKB) (h),2.96%
same,"% Inhibition, Enzymatic activity",ATPase (Na+/K+),-2.26E+00%
same,"% Inhibition, Specific binding",OX1 (h),6.092%
same,"% Inhibition, Specific binding",V1a (h),-8.82E-01%
same,"% Inhibition, Enzymatic activity",p38alpha kinase (h),10.339%
same,% Inhibition,kainate,7.0556%
same,inhibition at 10 µM,kappa (h) (KOP),7.11%
same,"% Inhibition, Specific binding",alpha2C (h),4.876%
same,inhibition at 10 µM,D1 (h),-11.8%
same,inhibition at 10 µM,[1],3.62%
same,"% Inhibition, Specific binding",5-HT1B (h),-1.91E+01%
same,"% Inhibition, Enzymatic activity",cathepsin L (h),15.4729%
same,inhibition at 10 µM,CYP2C19,-0.914%
same,inhibition at 10 µM,CYP2D6,13.6%
same,"% Inhibition, Specific binding",BZDp (TSPO) (h),21.7657%
same,"% Inhibition, Specific binding",5-HT2A (h),1.045%
same,"% Inhibition, Specific binding",alpha1A (h),3.065%
same,"% Inhibition, Specific binding",NMDA,-1.90E-01%
same,inhibition at 10 µM,M5 (h),1.64%
same,"% Inhibition, Specific binding",mu (MOP) (h),-1.17E+00%
same,inhibition at 10 µM,CB1 (h),-0.0362%
